Test results published in patent US20230331690A1, “THC DERIVATIVES, ORAL DOSAGE FORMS COMPRISING SAME, USES THEREOF FOR TREATING DISEASES AND DISORDERS AND SYNTHESIS THEREOF” (BAR-ILAN UNIVERSITY, priority 2020, published 2023).
Several values for one entry are separate records, joined by “and”; a condition that tells them apart may be missing. Equal entries are not always repeated.

Test system: hind paw of mice
Assay: Electronic Von-Frey mechanical sensitivity (withdrawal thresholds) after Paclitaxel-induced neuropathic pain
Assay type: in vivo
Details: for Withdrawal test, test 1 / Withdrawal test, test 4 / Withdrawal test, test 5 / Withdrawal test, test 6 / Withdrawal test, test 2 / Withdrawal test, test 3: per animal; for Withdrawal test, All group average: 8 mice; for Withdrawal test, Average: average per animal; for Withdrawal test, Change from b.l.: group average vs baseline; for Withdrawal test, test 6: additional test
Description: Mechanical sensitivity was evaluated by measuring the changes in tactile sensitivity in the hind paw of mice, using an Electronic Von-Frey apparatus (EVF). Withdrawal thresholds were measured, using the EVF apparatus, first at baseline (time=0) and then following drug, in a few periods after administration, by applying an accurate force on specific areas of the skin and measuring the needed force for the mouse to lift its paw.
Paclitaxel was utilized for the stimulation of a chemotherapy-induced neuropathic pain. Paclitaxel is anti-cancer chemotherapy drug classified as a “plant alkaloid” and an “antimicrotubule agent”.
Mice were divided into three groups of 8 mice each, as follows: • (a) Group no. 1—Morphine as positive control; • (b) Group no. […] 3—synthetic THC derivative 9-Desmethyl THC.
A portion of Paclitaxel was administered to each mouse by i.p. injection, on days 1, 3, 5 and 7 from the beginning of the experiment. At day 8, withdrawal thresholds were measured first at baseline (time=0), thereafter each mouse received a single portion of a drug substance, at 5 mg/Kg body weight concentration, by oral gavage and measurements took place.
The first checking point was 1 hour after administration of each drug. For every mouse, its threshold for the pain perception in which it removes its hind paw after the stabbing of the Von-Frey hair has been checked. Needed force (in gram force units) was measured each time and was recorded for every checking. This test was repeated 5 times for each mouse consecutively.
This procedure was repeated for all the three groups. The next checking point was 3 hours after administration, where the last withdrawal thresholds measurements were performed on the next morning, on day 9, which was 24 hours after administration.
Morphine was utilized as a positive control where group no. 1 mice received morphine (dissolved in a saline solution (0.9%) and injected subcutaneously) as an analgesic agent, prior to the mechanical sensitivity tests.
The tests described in this example are complicated and depend on numerous factors. Accordingly, results above 10.0 gram force (marked with an asterisk) were not included in the evaluation of the experimental data. In cases of exceptional results, an additional test was performed mouse (test 6) in order to assure the exceptional result.

[1] = t = 1 h after 5 mg/Kg, * values excluded
[2] = t = 3 h after 5 mg/Kg, * values excluded
[3] = t = 24 h after 5 mg/Kg, * values excluded

## CCCCCc1cc(O)c2c(c1)OC(C)(C)[C@@H]1CCC=C[C@@H]21 [9-Desmethyl THC, 9-desmethyl-THC]
1 h after 5 mg/Kg, vs baseline
  average decrease in the withdrawal thresholds: 10.2%
3 h after 5 mg/Kg
  decrease compared to baseline in the withdrawal thresholds: 12.1%
T = 1 h after 5 mg/Kg single dose (oral gavage; morphine s.c.), * values >10.0 excluded from evaluation
  Withdrawal test, test 1: 4.0 gram force (2×) and 7.2 gram force and 5.1 gram force and 4.3 gram force and 4.9 gram force and 7.3 gram force and 5.3 gram force
T = 1 h after 5 mg/Kg
  Withdrawal test, All group average: 5.55 gram force
  Withdrawal test, Average: 4.82 gram force and 5.82 gram force and 5.84 gram force and 6.20 gram force and 5.12 gram force and 5.18 gram force and 5.98 gram force and 5.42 gram force
  Withdrawal test, Change from b.l.: −10.2%
  Withdrawal test, test 4: 5.3 gram force (2×) and 5.7 gram force and 4.0 gram force and 4.3 gram force (2×) and 5.4 gram force and 4.5 gram force
  Withdrawal test, test 5: 4.3 gram force and 6.8 gram force (2×) and 4.4 gram force and 7.4 gram force and 4.6 gram force and 4.1 gram force and 5.6 gram force
  Withdrawal test, test 6: 6.3 gram force and 5.3 gram force
[1]
  Withdrawal test, test 2: 6.1 gram force (2×) and 4.7 gram force and 9.8 gram force and 9.4 gram force and 6.7 gram force and 5.7 gram force and 4.0 gram force
  Withdrawal test, test 3: 4.4 gram force and 5.1 gram force and 4.2 gram force (2×) and 6.2 gram force and 5.7 gram force and 7.0 gram force and 7.7 gram force
T = 3 h after 5 mg/Kg
  Withdrawal test, All group average: 5.43 gram force
  Withdrawal test, Average: 5.34 gram force and 5.02 gram force and 5.00 gram force and 5.62 gram force and 5.70 gram force (2×) and 5.22 gram force and 5.86 gram force
  Withdrawal test, Change from b.l.: −12.1%
  Withdrawal test, test 2: 5.1 gram force and 4.6 gram force and 4.8 gram force (2×) and 8.6 gram force (2×) and 4.7 gram force and 5.5 gram force
  Withdrawal test, test 4: 4.1 gram force and 5.0 gram force and 5.4 gram force (2×) and 9.5 gram force and 4.9 gram force and 6.0 gram force and 4.2 gram force
  Withdrawal test, test 5: 4.7 gram force (2×) and 6.3 gram force and 4.2 gram force and 4.3 gram force and 6.5 gram force and 6.8 gram force and 7.0 gram force
  Withdrawal test, test 6: 4.4 gram force and 4.9 gram force (2×)
[2]
  Withdrawal test, test 1: 7.4 gram force and 5.0 gram force and 4.8 gram force and 4.3 gram force and 4.5 gram force and 4.6 gram force and 7.0 gram force and 6.8 gram force
  Withdrawal test, test 3: 5.4 gram force and 4.2 gram force and 5.8 gram force and 5.2 gram force and 4.0 gram force (3×) and 4.6 gram force
T = 24 h after 5 mg/Kg
  Withdrawal test, All group average: 5.36 gram force
  Withdrawal test, Average: 6.58 gram force and 4.80 gram force and 5.28 gram force and 6.12 gram force and 4.96 gram force and 4.74 gram force and 5.16 gram force and 5.26 gram force
  Withdrawal test, Change from b.l.: −13.3%
  Withdrawal test, test 1: 5.4 gram force and 5.0 gram force (2×) and 4.2 gram force (3×) and 7.0 gram force and 7.1 gram force
  Withdrawal test, test 2: 6.9 gram force and 4.1 gram force (3×) and 4.7 gram force and 5.6 gram force and 4.4 gram force and 4.5 gram force
  Withdrawal test, test 3: 8.8 gram force and 4.1 gram force (2×) and 4.7 gram force and 4.2 gram force and 4.0 gram force and 5.6 gram force and 6.1 gram force
[3]
  Withdrawal test, test 4: 4.4 gram force and 6.2 gram force and 8.1 gram force and 9.0 gram force and 5.0 gram force and 5.1 gram force and 7.6 gram force and 4.0 gram force
  Withdrawal test, test 5: 7.4 gram force and 4.6 gram force (2×) and *10.0 gram force and 5.8 gram force and 7.3 gram force and 4.0 gram force (2×)
